Measured values from patent publication US20090175805A1, “Neuraminidase Inhibitors and uses thereof” (priority 2006, published 2009).

Tests used:
PAO1 biofilm formation = assay: Biofilm assay, crystal violet staining in 96-well microtiter plates; format: cell-based, P. aeruginosa; conditions: various concentrations of inhibitor, absorbance at 540 nm
Description: An overnight culture of bacteria grown in LB with shaking was diluted 1:100, and 100 μl aliquots added to 96-well microtiter plates incubated for 24-48 hours at 37° C. (O'Toole et al., (2000) J. Bacteriol. 182:425-431; O'Toole et al., (2000) Annu. Rev. Microbiol. 54:49-79). 0.1% crystal violet was added to each well for 15 minutes, rinsed three times with water then released with the addition of 200 μl of 95% ethanol. Absorbance was determined at 540 nm. For experiments with inhibitors, the following modifications in the assay were used: for oseltamivir (Tamiflu) (Roche, Nutley, N.J.), an overnight culture of bacteria was diluted 1:100 in different doses of inhibitor in LB and 100 μl aliquots plated and assayed as above; for peramivir (BioCryst, Birmingham, Ala.), an overnight culture of bacteria was diluted 1:100 in different doses of inhibitor in LB and incubated at room temperature for 48 hours then diluted 1:2 in LB and 100 μl aliquots plated and assayed as above (McKimm-Breschkin et al., (2003) Antimicrob. Agents. Chemother. 47:2264-2272; Sidwell et al., (2002) Expert Opin. Investig. Drugs 11:859-869). Each sample was tested in sextuplicate and the assay was repeated on three separate occasions and representative data shown. A mean and standard deviation were calculated and statistical significance determined using a two-tailed unpaired t test (Graph Pad Instat version 3.0, Graphpad Software, San Diego, Calif.) to test the null hypothesis that there was no difference in the amount of biofilm production under each test condition, as compared to the media alone or untreated control.

V. cholera neuraminidase = target: T1, V. cholera neuraminidase (Vibrio cholerae serotype O1, UniProt P0C6E9); assay: Neuraminidase assay with fluorescent substrate 2'-(4-methylumbelliferyl)-α-D-N-acetylneuraminic acid; format: biochemical; conditions: peramivir 0.25 and 2.5 μM; 24-48 hours; fluorescence ex 360 nm / em 465 nm
T1 construct: purchased Calbiochem, San Diego, Calif
Description: (§1) The PAO1 enzyme (10 μg/ml) was overexpressed and purified from E. coli using the pET28a vector (Novagen, San Diego, Calif.) and a control V. cholera neuraminidase (0.1 U/ml) (Calbiochem, San Diego, Calif.) were incubated with the fluorescent substrate 2′-(4-methylumbelliferyl)-α-D-N-acetylneuraminic acid (Sigma-Aldrich, St. Louis, Mo.) (25 μM in 0.9% NaCl) with or without peramivir (0.25 and 2.5 μM) for 24-48 hours and fluorescence read at excitation 360 nm and emission 465 nm. Each data point was performed in sextuplicate. A mean and standard deviation were calculated and statistical significance determined using a one-way analysis of variance with Bonferroni's post test (Graph Pad Instat version 3.0, Graphpad Software, San Diego, Calif.) to test the null hypothesis that there was no difference in the amount of fluorescence under each test condition, as compared to the untreated control.

[1] = system: PAO1 enzyme (P. aeruginosa PAO1 neuraminidase); assay: as above; format: biochemical; conditions: peramivir 0.25 and 2.5 μM; 24-48 hours; fluorescence ex 360 nm / em 465 nm
Description: as §1

T1 sequence (P0C6E9 25-781): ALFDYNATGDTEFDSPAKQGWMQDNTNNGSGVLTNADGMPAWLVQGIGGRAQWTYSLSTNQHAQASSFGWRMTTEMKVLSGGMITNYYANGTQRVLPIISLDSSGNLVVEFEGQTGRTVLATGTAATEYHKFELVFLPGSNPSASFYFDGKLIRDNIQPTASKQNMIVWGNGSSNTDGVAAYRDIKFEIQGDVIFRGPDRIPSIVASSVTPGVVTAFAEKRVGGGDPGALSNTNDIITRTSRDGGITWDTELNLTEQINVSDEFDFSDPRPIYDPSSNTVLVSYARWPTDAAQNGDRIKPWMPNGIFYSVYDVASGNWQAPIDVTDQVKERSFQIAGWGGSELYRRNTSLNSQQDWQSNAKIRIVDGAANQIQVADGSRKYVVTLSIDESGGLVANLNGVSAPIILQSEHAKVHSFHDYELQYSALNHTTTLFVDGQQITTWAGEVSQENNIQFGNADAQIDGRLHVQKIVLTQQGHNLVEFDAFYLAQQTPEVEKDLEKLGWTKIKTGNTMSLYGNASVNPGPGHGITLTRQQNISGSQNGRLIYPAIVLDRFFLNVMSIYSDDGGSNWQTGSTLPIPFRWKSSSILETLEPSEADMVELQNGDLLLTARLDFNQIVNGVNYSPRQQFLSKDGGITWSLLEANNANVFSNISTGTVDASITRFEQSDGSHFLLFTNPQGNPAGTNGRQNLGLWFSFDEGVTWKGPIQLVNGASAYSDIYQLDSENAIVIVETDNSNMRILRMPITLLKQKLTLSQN

CCOC(=O)C1=C[C@@H](OC(CC)CC)[C@H](NC(C)=O)[C@@H](N)C1 [oseltamivir]
inhibition of biofilm production by PAO1 (PAO1 biofilm formation): dose dependent inhibition of biofilm production

CC(=O)N[C@H]1[C@H]([C@H](O)[C@H](O)CO)OC(C(=O)O)=C[C@@H]1N=C(N)N [zanamivir]
inhibition of biofilm production by PAO1 (PAO1 biofilm formation): dose dependent inhibition of biofilm production

CCC(CC)[C@H](NC(C)=O)[C@@H]1[C@H](O)[C@@H](C(=O)O)C[C@H]1N=C(N)N [peramivir]
inhibition of neuraminidase activity (V. cholera N'ase) (V. cholera neuraminidase): inhibited | inhibition of neuraminidase activity (PAO1 N'ase) [1]: inhibited | inhibition of biofilm production by PAO1 (PAO1 biofilm formation): dose dependent inhibition of biofilm production
